In PMC11219766 (Nature Communications, 2024):

Columns and labels:
CIB1 [1] = molecular target: T1, CIB1 (Homo sapiens, UniProt Q99828)
Source text: (§1) Binding of the 56 purchased compounds was experimentally assessed in a time-resolved fluorescence energy transfer (TR-FRET) assay (see Fig. 3A and Supplementary data 1). Briefly, it serves as a displacement assay using an AlexaFluor-labeled cyclic CIB1-binding peptide and a Europium (Eu)-labeled Streptavidin donor for attachment to the AviTag biotinylated CIB1 protein (described previously in Puhl et al. and Haberman et al.[47],[62]).
(§2) A CIB1 TR-FRET assay uses an AlexaFluor-labeled cyclic CIB1-binding peptide and a Europium (Eu)-labeled Streptavidin donor for attachment to the AviTag biotinylated CIB1 protein. […] Compounds were dispensed into 384-well plates using a Mosquito HTS nanoliter instrument (TTP LABTech) as 3-fold serial dilutions (100x in DMSO, 0.1 μL) for final concentrations ranging from 100 μM to 0.5 nM. Biotinylated CIB1 was diluted to a final concentration of 3 nM in assay buffer (20 mM) TRIS pH 7.5, 150 mM NaCl, 1 mM CaCl, 1 mM CHAPS, and 1 mM DTT (added fresh each time), and 5 μL of diluted protein was added to the wells of the assay plate using a Multidrop Combi Reagent Dispenser (Thermo Scientific) and incubated at room temperature for 20 min. 5 μL detection solution containing 2 nM Lance Eu-Streptavidin (Perkin Elmer) and 30 nM Alexa647-CIB1-phage peptide diluted in assay buffer was added to the wells and incubated 30–60 min at room temperature protected from light. TR-FRET signals were measured using an Envision Multilabel Plate Reader (PerkinElmer; Eu excitation 320 nm, Eu emission 615 nm, Alexa dye emission 665 nm). […] Inhibition curves were analyzed using a four-parameter non-linear curve fit using ScreenAble software, and the mean and standard deviation were calculated. Publication curves were averaged and fit with a four-parameter non-liner curve fit using GraphPad Prism.

CIB1 [2] = molecular target: T1, CIB1; assay: biochemical
Source text: as §1, §2

T1 sequence (Q99828 whole entry): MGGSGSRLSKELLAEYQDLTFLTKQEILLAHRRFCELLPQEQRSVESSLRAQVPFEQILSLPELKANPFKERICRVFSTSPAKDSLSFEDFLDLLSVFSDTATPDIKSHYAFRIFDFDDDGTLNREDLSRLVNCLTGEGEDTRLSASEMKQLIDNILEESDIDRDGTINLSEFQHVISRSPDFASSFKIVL

| Compound | Hill slope (CIB1 [1]) | IC50 (CIB1 [2]) [µM] |
| --- | --- | --- |
| COc1cccc(OCCCn2cc(C=C3C(=O)NC(=O)N(Cc4ccco4)C3=O)c3ccccc32)c1 [UNC10245380A, COc1cccc(OCCCn2cc(C=C3C(=O)NC(=O)N(Cc4ccco4)C3=O)c3ccccc23)c1] | 1.5–2.5 | – |
| O=C(NCc1ccc2c(c1)OCO2)C1CCN(S(=O)(=O)c2cccc3nsnc23)CC1 [UNC10245381A, O=C(NCc1ccc2OCOc2c1)C1CCN(CC1)S(=O)(=O)c1cccc2nsnc12] | – | 84 |
| CC(c1nnc(SCC(=O)Nc2ccc(Oc3ccccc3)cc2)n1C)N1C(=O)COc2ccccc21 (centres unmarked) [UNC10245386A, CC(N1C(=O)COc2ccccc12)c1nnc(SCC(=O)Nc2ccc(Oc3ccccc3)cc2)n1C] | – | 33 |
| CC(c1cc(-c2ccccc2)[nH]n1)N(C)C(=O)C1CCN(c2cccc3c2C(=O)N(Cc2cccs2)C3=O)CC1 (centres unmarked) [UNC10245397A, CC(N(C)C(=O)C1CCN(CC1)c1cccc2C(=O)N(Cc3cccs3)C(=O)c12)c1cc([nH]n1)-c1ccccc1] | – | 24 |
| O=C(Nc1cccc2ncccc12)c1cccc(NS(=O)(=O)c2ccc3c(c2)OCCCO3)c1 [UNC10245399A, O=C(Nc1cccc2ncccc12)c1cccc(NS(=O)(=O)c2ccc3OCCCOc3c2)c1] | – | 59 |
| Cc1ccc(C)c(S(=O)(=O)N2CCN(C(=O)CSc3nnc(-c4ccc5c(c4)OCO5)n3-c3ccccc3)CC2)c1 [UNC10245404A, Cc1ccc(C)c(c1)S(=O)(=O)N1CCN(CC1)C(=O)CSc1nnc(-c2ccc3OCOc3c2)n1-c1ccccc1] | – | 14 |
| Cc1noc(C)c1COc1cccc(C(=O)Nc2cccc(S(=O)(=O)Nc3cccc(C(F)(F)F)c3)c2)c1 [UNC10245406A, Cc1noc(C)c1COc1cccc(c1)C(=O)Nc1cccc(c1)S(=O)(=O)Nc1cccc(c1)C(F)(F)F] | – | 39 |
| COc1cccc(C(=O)N(CC(=O)Nc2ccc(N3CCN(C(=O)c4ccc(C)cc4)CC3)cc2)Cc2ccc(F)cc2)c1 [UNC10245410A, COc1cccc(c1)C(=O)N(CC(=O)Nc1ccc(cc1)N1CCN(CC1)C(=O)c1ccc(C)cc1)Cc1ccc(F)cc1] | – | 11 |
| CN(Cc1ccco1)C(=O)c1ccc(COc2ccc3c(c2)C(c2cccc(F)c2)N(C(=O)C2CC2)CC3)o1 (centres unmarked) [UNC10245413A, CN(Cc1ccco1)C(=O)c1ccc(COc2ccc3CCN(C(c4cccc(F)c4)c3c2)C(=O)C2CC2)o1] | – | 48 |
| CCOC(=O)c1cc(-c2ccc(N3CCN(C(=O)COc4ccccc4)CC3)cc2)n(-c2ccccc2OC)n1 [UNC10245416A, CCOC(=O)c1cc(-c2ccc(cc2)N2CCN(CC2)C(=O)COc2ccccc2)n(n1)-c1ccccc1OC] | – | 12 |
| COc1cccc(CNC(=O)C2CCN(C(=O)[C@@H](Cc3ccccc3)NC(=O)COc3ccccc3)CC2)c1 [UNC10245418A, COc1cccc(CNC(=O)C2CCN(CC2)C(=O)[C@@H](Cc2ccccc2)NC(=O)COc2ccccc2)c1] | – | 93 |
| COc1ccccc1N1CCN(C(=O)CCCc2nnc3n(CC(C)C)c(=O)c4sccc4n23)CC1 [UNC10245420A, COc1ccccc1N1CCN(CC1)C(=O)CCCc1nnc2n(CC(C)C)c(=O)c3sccc3n12] | – | 87 |
| CCOc1ccccc1NC(=O)Nc1cccc(OCc2cc(=O)n3ccccc3n2)c1 [UNC10245432A, CCOc1ccccc1NC(=O)Nc1cccc(OCc2cc(=O)n3ccccc3n2)c1] | – | 43 |
| Cc1cc(NC(=O)CSc2nc3ccccc3c(=O)n2CC2CCC(C(=O)NCc3ccccc3Cl)CC2)n[nH]1 (centres unmarked) [UNC10245433A, Cc1cc(NC(=O)CSc2nc3ccccc3c(=O)n2CC2CCC(CC2)C(=O)NCc2ccccc2Cl)n[nH]1] | – | 8.8 |
| CC1Cc2ccccc2N1C(=O)CC1CCN(S(=O)(=O)c2ccc3c(c2)oc(=O)n3C)CC1 (centres unmarked) [UNC10245457A, CC1Cc2ccccc2N1C(=O)CC1CCN(CC1)S(=O)(=O)c1ccc2n(C)c(=O)oc2c1] | – | 44 |
| COc1ccccc1OCCC1CCN(C(=O)C2CCN(S(=O)(=O)c3cccc4nonc34)CC2)C1 (centres unmarked) [UNC10245474A, COc1ccccc1OCCC1CCN(C1)C(=O)C1CCN(CC1)S(=O)(=O)c1cccc2nonc12] | – | 75 |
| COc1ccccc1OCCCn1cc(C=C2C(=O)NC(=O)N(Cc3ccco3)C2=O)c2ccccc21 [UNC10245533, COc1ccccc1OCCCn1cc(C=C2C(=O)NC(=O)N(Cc3ccco3)C2=O)c2ccccc12] | – | 9.8 |
| O=C1NC(=O)N(Cc2ccco2)C(=O)C1=Cc1cn(CCCOc2ccccc2)c2ccccc12 [UNC10245534, O=C1NC(=O)C(=Cc2cn(CCCOc3ccccc3)c3ccccc23)C(=O)N1Cc1ccco1] | – | 24 |
| Cc1cccc(OCCCn2cc(C=C3C(=O)NC(=O)N(Cc4ccco4)C3=O)c3ccccc32)c1 [UNC10245535, Cc1cccc(OCCCn2cc(C=C3C(=O)NC(=O)N(Cc4ccco4)C3=O)c3ccccc23)c1] | – | 6.1 |
| O=C1NC(=O)N(Cc2ccco2)C(=O)C1=Cc1cn(CCCOc2ccccc2Cl)c2ccccc12 [UNC10245536, Clc1ccccc1OCCCn1cc(C=C2C(=O)NC(=O)N(Cc3ccco3)C2=O)c2ccccc12] | – | 12 |
| COc1ccccc1OCCn1cc(C=C2C(=O)NC(=O)N(Cc3ccco3)C2=O)c2ccccc21 [UNC10245537, COc1ccccc1OCCn1cc(C=C2C(=O)NC(=O)N(Cc3ccco3)C2=O)c2ccccc12] | – | 22 |
| COc1ccc(OCCn2cc(C=C3C(=O)NC(=O)N(Cc4ccco4)C3=O)c3ccccc32)cc1 [UNC10245538, COc1ccc(OCCn2cc(C=C3C(=O)NC(=O)N(Cc4ccco4)C3=O)c3ccccc23)cc1] | – | 19 |
| COc1ccc(OCCCn2cc(C=C3C(=O)NC(=O)N(Cc4ccco4)C3=O)c3ccccc32)cc1 [UNC10245539, COc1ccc(OCCCn2cc(C=C3C(=O)NC(=O)N(Cc4ccco4)C3=O)c3ccccc23)cc1] | – | 18 |
| Cc1cc(OCCCn2cc(C=C3C(=O)NC(=O)N(Cc4ccco4)C3=O)c3ccccc32)cc(C)c1Cl [UNC10245540, Cc1cc(OCCCn2cc(C=C3C(=O)NC(=O)N(Cc4ccco4)C3=O)c3ccccc23)cc(C)c1Cl] | – | 23 |
| Cc1cc(C)cc(OCCCn2cc(C=C3C(=O)NC(=O)N(Cc4ccco4)C3=O)c3ccccc32)c1 [UNC10245541, Cc1cc(C)cc(OCCCn2cc(C=C3C(=O)NC(=O)N(Cc4ccco4)C3=O)c3ccccc23)c1] | – | 4.3 |
| COc1cccc(OCCn2cc(C=C3C(=O)NC(=O)N(Cc4ccco4)C3=O)c3ccccc32)c1 [UNC10245542, COc1cccc(OCCn2cc(C=C3C(=O)NC(=O)N(Cc4ccco4)C3=O)c3ccccc23)c1] | – | 50 |
